Data from patent publication US6806230B1, “Pyrimidine derivatives and herbicides containing them” (Kumiai Chemical Industry Co., Ltd., priority 1999, dated 2004).

Tests used:
Type in all cases: in vivo
barnyard grass (Ec) [1] = test: Test Example 2: herbicidal effects by upland soil treatment; parameters: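 0-5 growth inhibition grade; 5 = over 90%; 4 = 70-90%; 3 = 50-70%; 2 = 30-50%; 1 = 10-30%; 0 = under 10%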; conditions: dose 100 g active ingredient per 10 ares, examined on the 21st day after treatment
Procedure, shortened: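 Pre-emergence test: barnyard grass and green foxtail sown in upland soil, then soil surface sprayed with wettable-powder formulation at 100 g active ingredient per 10 ares (100 l per 10 ares). Grown in greenhouse; herbicidal effect scored on a rating scale 21 days after treatment.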

barnyard grass (Ec) [2] = test: Test Example 3: herbicidal effects by foliage treatment in upland field; parameters: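 0-5 growth inhibition grade; 5 = over 90%; 4 = 70-90%; 3 = 50-70%; 2 = 30-50%; 1 = 10-30%; 0 = under 10%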; conditions: dose 100 g active ingredient per 10 ares, examined on the 14th day after treatment
Procedure, shortened: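 Barnyard grass and green foxtail were grown in upland soil for 2 weeks in a greenhouse. A water-diluted wettable powder was sprayed over the foliage at 100 l per 10 ares, giving 100 g active ingredient per 10 ares. Herbicidal effect was scored on day 14 after treatment.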

monochoria (Mo) [3] = test: Test Example 4: selectivity for a crop plant by flooded paddy field treatment; parameters: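 0-5 growth inhibition grade; 5 = over 90%; 4 = 70-90%; 3 = 50-70%; 2 = 30-50%; 1 = 10-30%; 0 = under 10%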; conditions: monochoria, dose 25 gai/10a, 21st day after treatment, index per Table 44
Procedure, shortened: (§1)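 Water-surface application in a greenhouse pot test: 25 g active ingredient per 10 ares, given as a diluted wettable powder one day after flooding, with visual rating of herbicidal effect three weeks post-treatment.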

rice (Or) = test: as above; parameters: scale not given here; conditions: rice transplanted at second leaf stage, dose 25 gai/10a, 21st day after treatment, index per Table 44
Procedure, shortened: as §1

barnyard grass (Eo) [4] = test: as above; parameters: scale not given here; conditions: barnyard grass, dose 25 gai/10a, 21st day after treatment, index per Table 44
Procedure, shortened: as §1

monochoria (Mo) [5] = test: Test Example 1: herbicidal effects by flooded paddy field treatment; parameters: herbicidal effects, Mo (monochoria):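 0-5 growth inhibition grade; 5 = over 90%; 4 = 70-90%; 3 = 50-70%; 2 = 30-50%; 1 = 10-30%; 0 = under 10%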; conditions: dose 100 g active ingredient per 10 ares, examined on the 21st day after treatment, standards of Table 44
Procedure, shortened: (§2)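 Dose: 100 g active ingredient per 10 ares as a diluted wettable powder dripped onto 3 cm floodwater, one day after sowing in puddled paddy soil. Scored by a standard rating scale 21 days later following greenhouse growth.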

barnyard grass (Eo) [6] = test: as above; parameters: herbicidal effects, Eo (barnyard grass):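 0-5 growth inhibition grade; 5 = over 90%; 4 = 70-90%; 3 = 50-70%; 2 = 30-50%; 1 = 10-30%; 0 = under 10%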; conditions: dose 100 g active ingredient per 10 ares, examined on the 21st day after treatment, standards of Table 44
Procedure, shortened: as §2

Row | SMILES | Ec (herbicidal effects, index) (barnyard grass (Ec) [1]) | Ec (herbicidal effects, index) (barnyard grass (Ec) [2]) | Mo (herbicidal effect index) (monochoria (Mo) [3]) | Or (herbicidal effect index on crop) (rice (Or)) | Eo (herbicidal effect index) (barnyard grass (Eo) [4]) | herbicidal effects, Mo (monochoria) (monochoria (Mo) [5]) | herbicidal effects, Eo (barnyard grass) (barnyard grass (Eo) [6])
1 | COC(C)(OC)c1ncncc1C(C(C)C)N(C)C(=O)Cc1ccc(Cl)cc1 (racemic) [1-517] | 5 | 4 | 5 | 1 | 5 | 5 | 5
2 | CON(C(=O)Cc1ccc(F)cc1)C(c1cncnc1C(F)(F)F)C(C)C (racemic) [1-333] | 5 | 4 | 5 | 1 | 5 | 5 | 5
3 | COc1ccccc1C(c1cncnc1C(F)(F)F)N(C)C(=O)Cc1ccc(F)cc1 (racemic) [1-489] | 5 | 4 | 5 | 1 | 5 | 5 | 5
4 | CN(C(=O)Cc1ccc(Cl)cc1)C(c1ccsc1)c1cncnc1C(F)(F)F (racemic) [1-442] | 5 | 4 | 5 | 1 | 5 | 5 | 5
5 | CCOC(OCC)C(c1cncnc1C(C)C)N(C)C(=O)Cc1ccccc1 (racemic) [1-454] | 4 | 4 | 5 | 1 | 5 | 5 | 5
6 | C#CCN(C(=O)Cc1ccccc1)C(CCC)c1cncnc1CC (racemic) [1-606] | 5 | 4 | 5 | 1 | 5 | 5 | 5
7 | C#CCN(C(=O)Cc1ccc(F)cc1)C(c1cncnc1CC)C(C)C (racemic) [1-559] | 5 | 4 | 5 | 1 | 5 | 5 | 5
8 | CCCc1ncncc1C(CCC)N(C)C(=O)Cc1ccc(F)cc1 (racemic) [1-493] | 5 | 4 | 5 | 1 | 5 | 5 | 5
9 | CC(C)C(c1cncnc1C(F)(F)F)N(C)C(=O)N(C)c1ccc(C#N)cc1 (racemic) [1-459] | 5 | 4 | 5 | 1 | 5 | 5 | 5
10 | CC(C)CC(c1cncnc1C(F)(F)F)N(C)C(=O)Cc1cccc(F)c1 (racemic) [1-334] | 5 | 4 | 5 | 0 | 5 | 5 | 5
11 | CCc1ncncc1C(N(C)C(=O)Cc1ccc(Cl)cc1)C(C)(C)C (racemic) [1-566] | 5 | 4 | 5 | 1 | 5 | 5 | 5
12 | CCOC(=O)c1ncncc1C(C(C)C)N(C)C(=O)C(C)c1ccc(Cl)cc1 (single isomer, unassigned) [1-594] | 5 | 5 | 5 | 1 | 5 | 5 | 5
